Literature values as cited in patent publication US11096902B1, “Transdermal film formulations and methods of use” (King Abdulaziz University, priority 2021, dated 2021).

Settings: oral, with food

CC(C)c1c(C(=O)Nc2ccccc2)c(-c2ccccc2)c(-c2ccc(F)cc2)n1CC[C@@H](O)C[C@@H](O)CC(=O)[O-].CC(C)c1c(C(=O)Nc2ccccc2)c(-c2ccccc2)c(-c2ccc(F)cc2)n1CC[C@@H](O)C[C@@H](O)CC(=O)[O-].[Ca+2] [ATC, Atorvastatin calcium]
reduction of systemic availability by concomitant intake of food: 25%
